logP	Structure (SMILES)
1.27	CNC(=O)NC(=O)c1ccccc1
4.35	COc1ccccc1C(=O)NC(=O)Nc1ccc(Cl)cc1
1.6	CC(=O)NC(=O)Nc1ccccc1
-1.4	CNC(N)=O
-0.01	CCNC(=O)NC(C)=O
1.92	CCNC(=O)NC(=O)c1ccccc1
3.2	O=C(NC(=O)c1c(F)cccc1F)Nc1ccc(F)cc1
3.75	Cc1cccc([N+](=O)[O-])c1C(=O)NC(=O)Nc1ccc(Cl)cc1
3.39	O=C(NC(=O)c1ccccc1)Nc1ccccc1
-0.7	CNC(=O)NC(C)=O

Structure (SMILES)	logP
O=C(NC(=O)c1c(F)cccc1F)Nc1ccc(Cl)cc1	3.88

— the OPERA property sets (Mansouri et al. 2018)
